{
  "source": "patent US4895864A",
  "about": "“Antibiotic TAN-950A, its production and use” (Takeda Chemical Industries, Ltd., priority 1987, dated 1990)",
  "key": {"[1]": {"experiment": "Solubility", "format": "physicochemical", "description": "The physico-chemical properties of TAN-950A (monosodium salt) obtained in Example 2 described later are as follows."}, "[2]": {"system": "mice", "experiment": "Acute toxicity in mice", "format": "in vivo", "details": "intravenous, subdermal, intraperitoneal or oral, 4000 mg/kg"}, "[3]": {"system": "Candida albicans", "experiment": "Therapeutic effect on experimental candidosis in mice", "format": "in vivo", "details": "intravenously infected, twice administration, total of dosages"}, "[4]": {"system": "Aspergillus fumigatus IFO 6344", "experiment": "Paper disc agar diffusion, growth-inhibition zone", "format": "cell-based", "details": "IFO6344, 48 h, monosodium salt, disc 1000 μg/ml, 28 °C, read-out: Diameter of growth-inhibition zone", "description": "(§1) Paper discs (8 mm. in diameter, manufactured by Toyo Seisakusho) immersed in an aqueous solution of the antibiotic TAN-950A (monosodium salt) (1000 μg/ml) were put on agar plates seeded with the test organism, and these agar plates were incubated at a given […] for a given period of time. In the Table, \"0\" means no formation of the growth-inhibition zone. Culture media employed are as follows:\n(§2) B: Yeast nitrogen base agar medium (Difco Laboratories, USA) supplemented with L-asparagine (0.17%)\n(§3) D: Yeast nitrogen base agar medium (Difco Laboratories, USA) supplemented with glucose (2%) and agar (1.5%)"}, "[5]": {"system": "Candida utilis IFO 0619", "experiment": "Paper disc agar diffusion, growth-inhibition zone", "format": "cell-based", "details": "monosodium salt, disc 1000 μg/ml, 28 °C, 48 h, 0 = no zone", "description": "as §1, §2, §3"}, "[6]": {"system": "Filobasidium uniguttulatum IFO 0699", "experiment": "Paper disc agar diffusion, growth-inhibition zone", "format": "cell-based", "details": "IFO0699, 48 h, monosodium salt, disc 1000 μg/ml, 28 °C, read-out: Diameter of growth-inhibition zone", "description": "as §1, §2, §3"}, "[7]": {"system": "Torulopsis glabrata IFO 1085", "experiment": "Paper disc agar diffusion, growth-inhibition zone", "format": "cell-based", "details": "Nakaseomyces glabratus, IFO1085, 48 h, monosodium salt, disc 1000 μg/ml, 28 °C, read-out: Diameter of growth-inhibition zone", "description": "as §1, §2, §3"}, "[8]": {"system": "Cryptococcus neoformans IFO 0410", "experiment": "Paper disc agar diffusion, growth-inhibition zone", "format": "cell-based", "details": "IFO0410, 48 h, monosodium salt, disc 1000 μg/ml, 28 °C, read-out: Diameter of growth-inhibition zone", "description": "as §1, §2, §3"}, "[9]": {"system": "Penicillium chrysogenum IFO 4626", "experiment": "Paper disc agar diffusion, growth-inhibition zone", "format": "cell-based", "details": "IFO4626, monosodium salt, disc 1000 μg/ml, 28 °C, read-out: Diameter of growth-inhibition zone", "description": "as §1, §2, §3"}, "[10]": {"system": "Saccharomyces cerevisiae IFO 0209", "experiment": "Paper disc agar diffusion, growth-inhibition zone", "format": "cell-based", "details": "IFO0209, 48 h, monosodium salt, disc 1000 μg/ml, 28 °C, read-out: Diameter of growth-inhibition zone", "description": "as §1, §2, §3"}, "[11]": {"system": "Candida albicans IFO 0583", "experiment": "Paper disc agar diffusion, growth-inhibition zone", "format": "cell-based", "details": "IFO0583, 48 h, monosodium salt, disc 1000 μg/ml, 28 °C, read-out: Diameter of growth-inhibition zone", "description": "as §1, §2, §3"}, "[12]": {"system": "Candida tropicalis IFO0006", "experiment": "Paper disc agar diffusion, growth-inhibition zone", "format": "cell-based", "details": "monosodium salt, disc 1000 μg/ml, medium D, 28 °C, 48 h, read-out: Diameter of growth-inhibition zone", "description": "as §1, §3"}, "[13]": {"system": "Microsporum gypseum IFO 6075", "experiment": "Paper disc agar diffusion, growth-inhibition zone", "format": "cell-based", "details": "Nannizzia gypsea, IFO6075; monosodium salt, disc 1000 μg/ml; medium D, 28 °C, 72 h; read-out: Diameter of growth-inhibition zone", "description": "as §1, §3"}, "[14]": {"system": "Candida parakrusei IFO0640", "experiment": "Paper disc agar diffusion, growth-inhibition zone", "format": "cell-based", "details": "monosodium salt, disc 1000 μg/ml, medium D, 28 °C, 48 h, read-out: Diameter of growth-inhibition zone", "description": "as §1, §3"}, "[15]": {"system": "Candida parapsilosis IFO1396", "experiment": "Paper disc agar diffusion, growth-inhibition zone", "format": "cell-based", "details": "Lodderomyces parapsilosis, monosodium salt, disc 1000 μg/ml, medium D, 28 °C, 48 h, read-out: Diameter of growth-inhibition zone", "description": "as §1, §3"}, "[16]": {"system": "Candida albicans", "experiment": "TLC-bioautography using Candida albicans", "format": "cell-based", "details": "aqueous layer of culture filtrate; cellulose f, acetonitrile:water (3:1)"}, "[17]": {"system": "Escherichia coli NIH JC-2", "experiment": "Paper disc agar diffusion, growth-inhibition zone", "format": "cell-based", "details": "NIHJC2, monosodium salt, disc 1000 μg/ml, medium C, 37 °C, 20 h, 0 = no zone, read-out: Diameter of growth-inhibition zone", "description": "as §1\n(§4) C: Trypticase soy agar (Becton Dickinson Co., USA)"}, "[18]": {"system": "Bacillus subtilis PCI 219", "experiment": "Paper disc agar diffusion, growth-inhibition zone", "format": "cell-based", "details": "PCI219, monosodium salt, disc 1000 μg/ml, medium C, 37 °C, 20 h, 0 = no zone, read-out: Diameter of growth-inhibition zone", "description": "as §1, §4"}, "[19]": {"system": "Trichophyton rubrum IFO 5467", "experiment": "Paper disc agar diffusion, growth-inhibition zone", "format": "cell-based", "details": "IFO5467, monosodium salt, disc 1000 μg/ml, 28 °C, read-out: Diameter of growth-inhibition zone", "description": "as §1\nA: Sabouraud's dextrose agar medium\nas §3"}},
  "note": "Where a name gives a salt, the structure may show the parent alone. Read-outs that look alike come from different tables or passages of the source.",
  "data": [
    {"smiles": "N[C@@H](Cc1c[nH]oc1=O)C(=O)O", "note": "[TAN-950A monosodium salt]", "values": [
      {"measurement": "Solubility", "setting": "[1]; acetone", "value": "Sparingly soluble"},
      {"measurement": "Solubility", "setting": "[1]; chloroform", "value": "Sparingly soluble"},
      {"measurement": "Solubility", "setting": "[1]; dimethyl sulfoxide", "value": "Soluble"},
      {"measurement": "Solubility", "setting": "[1]; ethyl acetate", "value": "Sparingly soluble"},
      {"measurement": "Solubility", "setting": "[1]; methanol", "value": "Soluble"},
      {"measurement": "Solubility", "setting": "[1]; water", "value": "Soluble"},
      {"measurement": "acute toxicity", "setting": "[2]", "value": "No acute toxicity"},
      {"measurement": "ED50", "setting": "[3]; oral", "value": 105, "unit": "mg/kg"},
      {"measurement": "ED50", "setting": "[3]; sc, subcutaneous", "value": 40, "unit": "mg/kg"}
    ]},
    {"smiles": "N[C@@H](Cc1c[nH]oc1=O)C(=O)O", "note": "[TAN-950A]", "values": [
      {"measurement": "zone of inhibition at 1000 µg/mL", "setting": "[4]; medium B, 0 = no zone", "value": 0, "unit": "mm"},
      {"measurement": "zone of inhibition at 1000 µg/mL", "setting": "[4]; medium D", "value": 57, "unit": "mm"},
      {"measurement": "zone of inhibition at 1000 µg/mL", "setting": "[5]; Williopsis jadinii, IFO0619, medium B, read-out: Diameter of growth-inhibition zone", "value": 0, "unit": "mm"},
      {"measurement": "Diameter of growth-inhibition zone", "setting": "[5]; medium D", "value": 0, "unit": "mm"},
      {"measurement": "zone of inhibition at 1000 µg/mL", "setting": "[6]; medium B", "value": 23, "unit": "mm"},
      {"measurement": "zone of inhibition at 1000 µg/mL", "setting": "[6]; medium D", "value": 35, "unit": "mm"},
      {"measurement": "zone of inhibition at 1000 µg/mL", "setting": "[7]; medium B", "value": 23, "unit": "mm"},
      {"measurement": "zone of inhibition at 1000 µg/mL", "setting": "[7]; medium D", "value": 26, "unit": "mm"},
      {"measurement": "zone of inhibition at 1000 µg/mL", "setting": "[8]; medium B, 0 = no zone", "value": 0, "unit": "mm"},
      {"measurement": "zone of inhibition at 1000 µg/mL", "setting": "[8]; medium D", "value": 27, "unit": "mm"},
      {"measurement": "zone of inhibition at 1000 µg/mL", "setting": "[9]; medium B, 66 h, 0 = no zone", "value": 0, "unit": "mm"},
      {"measurement": "zone of inhibition at 1000 µg/mL", "setting": "[9]; medium D, 72 h", "value": 35, "unit": "mm"},
      {"measurement": "zone of inhibition at 1000 µg/mL", "setting": "[10]; medium B", "value": 24, "unit": "mm"},
      {"measurement": "zone of inhibition at 1000 µg/mL", "setting": "[10]; medium D", "value": 25, "unit": "mm"},
      {"measurement": "zone of inhibition at 1000 µg/mL", "setting": "[11]; medium B", "value": 21, "unit": "mm"},
      {"measurement": "zone of inhibition at 1000 µg/mL", "setting": "[11]; medium D", "value": 34, "unit": "mm"},
      {"measurement": "zone of inhibition at 1000 µg/mL", "setting": "[12]", "value": 25, "unit": "mm"},
      {"measurement": "zone of inhibition at 1000 µg/mL", "setting": "[13]", "value": 41, "unit": "mm"},
      {"measurement": "zone of inhibition at 1000 µg/mL", "setting": "[14]", "value": 43, "unit": "mm"},
      {"measurement": "zone of inhibition at 1000 µg/mL", "setting": "[15]", "value": 40, "unit": "mm"},
      {"measurement": "inhibition zone in TLC-bioautography", "setting": "[16]", "value": "inhibition zones"},
      {"measurement": "zone of inhibition at 1000 µg/mL", "setting": "[17]", "value": 0, "unit": "mm"},
      {"measurement": "zone of inhibition at 1000 µg/mL", "setting": "[18]", "value": 0, "unit": "mm"},
      {"measurement": "zone of inhibition at 1000 µg/mL", "setting": "[19]; medium A, 48 h, 0 = no zone", "value": 0, "unit": "mm"},
      {"measurement": "zone of inhibition at 1000 µg/mL", "setting": "[19]; medium D, 72 h", "value": 47, "unit": "mm"}
    ]}
  ]
}
